The text below walks through data of US11220479B2, “Glucosylceramide synthase inhibitors and therapeutic methods using the same” (THE REGENTS OF THE UNIVERSITY OF MICHIGAN, priority 2019, dated 2022).

The IC50 is the point on the concentration scale where inhibition reaches its midpoint. For orientation: AUC means the area under the concentration-time curve, a measure of exposure. Read a high AUC as high exposure.

Data set [1] deals with T1, glucosylceramide synthase (GCS) (Canis lupus familiaris, UniProt A0A8I3MXG6).
T1 construct: endogenous in cells; host or cells: parental (wild-type) MDCKII cells
T1 sequence (A0A8I3MXG6 1-394): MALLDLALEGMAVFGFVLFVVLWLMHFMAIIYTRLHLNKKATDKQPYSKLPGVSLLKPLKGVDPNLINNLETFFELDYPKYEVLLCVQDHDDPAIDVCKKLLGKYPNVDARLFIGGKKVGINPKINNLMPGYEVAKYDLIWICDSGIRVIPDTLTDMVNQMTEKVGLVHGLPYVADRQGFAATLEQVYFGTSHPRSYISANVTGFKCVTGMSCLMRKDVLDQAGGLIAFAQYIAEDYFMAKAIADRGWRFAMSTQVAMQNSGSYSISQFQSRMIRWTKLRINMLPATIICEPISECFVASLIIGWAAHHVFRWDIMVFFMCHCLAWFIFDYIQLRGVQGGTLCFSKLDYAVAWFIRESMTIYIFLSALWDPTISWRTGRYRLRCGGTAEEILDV
The data set is described as follows: GCS inhibition in MDCKII cells (inhibition of GlcCer production in whole wild-type MDCKII cells). The format is cell-based. The conditions noted are these: read-out: MDCK IC50.
Description: GCS Inhibition in MDCKII Cells
Parental (WT-)MDCKII cells were routinely maintained in medium consisting of Opti-MEM/F12 (1:1), 5% FBS, 100 U/mL of penicillin, 100 μg/mL streptomycin and 200 mM L-glutamine. MDCKII cells were newly thawed from frozen ampules every two months.
The inhibitor-ethanol solutions then were diluted 50× into 2 mM delipidated bovine serum albumin-phosphate buffered saline solution to make water-soluble glycosphingolipid inhibitor-bovine serum albumin complexes. The inhibitor-bovine serum album complexes were sterile-filtered and stored at −20° C. Prior to use, portions of the inhibitor-bovine serum albumin complexes were further diluted with Opti-F12 to make treatment solutions. Equal amounts of bovine serum albumin and ethanol were added into the control cultures. Cells (5×10^5) were seeded into 10-cm culture dishes containing 10 ml of Opti-F12 with 5% FBS. After 24 hours, the medium was replaced with fresh serum-free Opti-F12 medium, and cells were exposed to candidate GCS inhibitors at concentrations of 0, 1, 3, 10, 30, 100 and 300 nM for 24 hours.
Briefly, cells were washed with ice-cold phosphate buffered saline, fixed by methanol, and collected with rubber scraper. Chloroform was then added to yield a theoretical ratio of chloroform:methanol:water at 1:2:0.8 (v/v/v) to form a mono-phase. Cell debris and proteins were removed by centrifugation at 2200×g for 30 min. The supernatants were portioned by adding chloroform and 0.9% NaCl. […] A portion of purified glycosphingolipids normalized to 100 nmol of total phospholipids was analyzed by high performance thin layer chromatography. The thin layer chromatography separations were processed twice. The plate pretreated with 1% sodium borate was first developed in a solvent system consisting of chloroform/methanol (98/2, v/v). After air drying, the plate was then developed in a solvent system containing chloroform/methanol/water (70/30/4, v/v/v). The levels of glucosylceramide were detected by charring with 8% cupric sulfate in 8% phosphoric acid, and quantified by densitometric scanning using ImageJ, NIH Image.

A short description of data set [2]: Half-life when incubated with mouse liver microsomes (MLM). The class given is in vitro ADME. The conditions noted are these: read-out: MLM T½. How it is done:
^a Inhibition of GlcCer production in whole wild-type MDCKII cells. ^bHalf-life when incubated with mouse liver microsomes. ^cAreas under the drug concentration curve after single IP dose in mice (10 mg/kg). ^dReduction in brain levels of glucosylceramide in CBE mice after 14 days of qd dosing with test drug administered IP. NC=no change.
(Liver microsomes are vesicles of endoplasmic reticulum, rich in cytochrome P450 enzymes.)

A short description of data set [3]: IP PK: areas under the drug concentration curve after single IP dose in mice. The conditions noted are these: mice, single IP dose 10 mg/kg; for AUC: mouse, plasma. The format is in vivo.
Where [4] appears, read: mouse, liver microsomes, Table 2, Cl vs H comparison.
Where [5] appears, read: inhibition of GlcCer production in whole wild-type MDCKII cells, 24 hours.
Where [6] appears, read: half-life when incubated with mouse liver microsomes.

Molecules are shown by their SMILES. Like-named read-outs stand apart in the source and are kept apart here.

As for `O=C(CC1Cc2ccccc2C1)N[C@H](CN1CCCC1)[C@H](O)c1ccccc1` [Comp Ex. 1, reference compound], the IC50 in data set [1] (Table 2, Cl vs H comparison) was 6.5 nM. Further, in data set [2] (setting [4]), the half-life is 15 min.

With `CC(C)(C)Oc1ccc([C@@H](O)[C@@H](CN2CCCC2)NC(=O)CC2Cc3ccccc3C2)cc1` [Comp. Ex. 2, reference compound], in data set [1] (Table 2, Cl vs H comparison), the concentration for half-maximal inhibition (IC50) was determined as 2.5 nM. The half-life in data set [2] (setting [4]) is 120 min.

As for `O=C(CC1Cc2ccccc2C1)N[C@H](CN1CCCC1)[C@H](O)c1ccc(OC(F)(F)F)cc1` [Comp. Ex. 3, reference compound], the half-life in data set [2] (setting [4]) came out at 251 min.

On to `O=C(CC1Cc2ccccc2C1)N[C@H](CN1CCCC1)[C@H](O)c1ccc(OC2CC2)cc1` [Comp. Ex. 4, reference compound], for which the IC50 in data set [1] (Table 2, Cl vs H comparison) amounted to 1.7 nM. Moreover, the half-life in data set [2] (setting [4]) stood at 3.8 min.

As for `CC1(Oc2ccc([C@@H](O)[C@@H](CN3CCCC3)NC(=O)CC3Cc4ccccc4C3)cc2)COC1` [Comp. Ex. 5, reference compound], the half-inhibitory concentration (IC50) in data set [1] (Table 2, Cl vs H comparison) was 7.9 nM. Besides, the half-life in data set [2] (setting [4]) stood at 24 min.

Turning to `CC1(C)COc2cc([C@@H](O)[C@@H](CN3CCCC3)NC(=O)CC3Cc4ccccc4C3)ccc2O1` [Comp. Ex. 7, reference compound], in data set [1] (Table 2, Cl vs H comparison), the IC50 came to 1 nM. In addition, the half-life in data set [2] (setting [4]) came out at 29 min.

`O=C(CC1Cc2ccccc2C1)N[C@H](CN1CCCC1)[C@H](O)c1ccc(C2CC2)cc1` [Comp. Ex. 8, reference compound]: the concentration for half-maximal inhibition (IC50) in data set [1] (Table 2, Cl vs H comparison) was 3.9 nM. The half-life in data set [2] (setting [4]) was 56 min.

For `O=C(CC1Cc2ccccc2C1)N[C@H](CN1CCCC1)[C@H](O)c1ccc(OC(F)F)cc1` [Comp. Ex. 9, reference compound], in data set [2] (setting [4]), the half-life turned out to be 38 min.

As to `COc1ccccc1[C@@H](O)[C@@H](CN1CCCC1)NC(=O)CC1Cc2ccccc2C1` [Comp. Ex. 19, reference compound], the 50% inhibitory concentration (IC50) in data set [1] (Table 2, Cl vs H comparison) was found to be 4.8 nM.

In the case of `O=C(CC1Cc2ccccc2C1)N[C@H](CN1CCCC1)[C@H](O)c1ccc(OC(F)(F)F)c(Cl)c1` [Example 3, N-((1R,2R)-1-(3-chloro-4-(trifluoromethoxy)phenyl)-1-hydroxy-3-(pyrrolidin-1-yl)propan-2-yl)-2-(2,3-dihydro-1H-inden-2-yl)acetamide], the IC50 in data set [1] (setting [5]) came to 4.1 nM. Moreover, in data set [2] (setting [6]), the half-life was 316 min.

In the case of `O=C(N[C@H](CN1CCCC1)[C@H](O)c1cccc(Cl)c1)OC1Cc2ccccc2C1` [Example 6, 2,3-dihydro-1H-inden-2-yl ((1R,2R)-1-(3-chlorophenyl)-1-hydroxy-3-(pyrrolidin-1-yl)propan-2-yl)carbamate], the IC50 in data set [1] (setting [5]) was determined as 3.8 nM. Besides, in data set [2] (setting [6]), the half-life was determined as 18 min. Also, in data set [3], the “IP PK Brain AUC” value was determined as 997 ng·h/mL and the AUC is 401 ng·h/mL.

Consider `O=C(CC1Cc2ccccc2C1)N[C@H](CN1CCCC1)[C@H](O)c1ccc(C2CC2)c(Cl)c1` [Example 8, N-((1R,2R)-1-(3-chloro-4-cyclopropylphenyl)-1-hydroxy-3-(pyrrolidin-1-yl)propan-2-yl)-2-(2,3-dihydro-1H-inden-2-yl)acetamide], for which the half-inhibitory concentration (IC50) in data set [1] (setting [5]) is 0.54 nM. The half-life in data set [2] (setting [6]) was 91 min.

Consider `O=C(CC1Cc2ccccc2C1)N[C@H](CN1CC[C@@H](F)C1)[C@H](O)c1cccc(Cl)c1` [Example 10, N-((1R,2R)-1-(3-chlorophenyl)-3-((R)-3-fluoropyrrolidin-1-yl)-1-hyroxypropan-2-yl)-2-(2,3-dihydro-1H-inden-2-yl)acetamide], for which the concentration for half-maximal inhibition (IC50) in data set [1] (setting [5]) came to 8.7 nM. In data set [2] (setting [6]), the half-life amounted to 12 min. Further, in data set [3], the “IP PK Brain AUC” value was found to be 940 ng·h/mL and the AUC worked out at 289 ng·h/mL.

As for `O=C(CC1Cc2ccccc2C1)N[C@H](CN1CC[C@@H](F)C1)[C@H](O)c1ccc(OC2CC2)c(Cl)c1` [Example 11, N-((1R,2R)-1-(3-chloro-4-cyclopropoxyphenyl)-3-((R)-3-fluoropyrrolidin-1-yl)-1-hydroxypropan-2-yl)-2-(2,3-dihydro-1H-inden-2-yl)acetamide], the IC50 in data set [1] (setting [5]) is 0.63 nM. For the same molecule, in data set [2] (setting [6]), the half-life is 5.5 min. For the same molecule, in data set [3], the “IP PK Brain AUC” value was 178 ng·h/mL and the area under the curve (AUC) stood at 397 ng·h/mL.

As for `O=C(CC1Cc2ccccc2C1)N[C@H](CN1CCCC1)[C@H](O)c1ccc(OC(F)F)c(Cl)c1` [Example 13, N-((1R,2R)-1-(3-chloro-4-(difluoromethoxy)phenyl)-1-hydroxy-3-(pyrrolidin-1-yl)propan-2-yl)-2-(2,3-dihydro-1H-inden-2-yl)acetamide], the concentration for half-maximal inhibition (IC50) in data set [1] (setting [5]) was 0.71 nM. Also, the half-life in data set [2] (setting [6]) came to 187 min. Further, in data set [3], the “IP PK Brain AUC” value stood at 216 ng·h/mL and the area under the curve (AUC) was 535 ng·h/mL.

On to `CC1(OC(=O)N[C@H](CN2CCCC2)[C@H](O)c2cccc(Cl)c2)Cc2ccccc2C1` [Example 14, 2-methyl-2,3-dihydro-1H-inden-2-yl ((1R,2R)-1-(3-chlorophenyl)-1-hydroxy-3-(pyrrolidin-1-yl)propan-2-yl)carbamate], for which, in data set [1] (setting [5]), the half-maximal inhibitory concentration (IC50) stood at 9.2 nM. This molecule showed an AUC in data set [3] of 324 ng·h/mL.

`O=C(CC1Cc2ccccc2C1)N[C@H](CN1CCC1)[C@H](O)c1cccc(Cl)c1` [Example 16, N-((1R,2R)-3-(azetidin-1-yl)-1-(3-chlorophenyl)-1-hydroxypropan-2-yl)-2-(2,3-dihydro-1H-inden-2-yl)acetamide]: in data set [1] (setting [5]), the IC50 worked out at 6.8 nM. In addition, the half-life in data set [2] (setting [6]) is 54 min.

On to `COc1c(Cl)cccc1[C@@H](O)[C@@H](CN1CCCC1)NC(=O)CC1Cc2ccccc2C1` [Example 18, N-((1R,2R)-1-(3-chloro-2-methoxyphenyl)-1-hydroxy-3-(pyrrolidin-1-yl)propan-2-yl)-2-(2,3-dihydro-1H-inden-2-yl)acetamide], for which the IC50 in data set [1] (setting [5]) worked out at 81.5 nM.

For `COc1ccc(Cl)cc1[C@@H](O)[C@@H](CN1CCCC1)NC(=O)CC1Cc2ccccc2C1` [Example 19, N-((1R,2R)-1-(5-chloro-2-methoxyphenyl)-1-hydroxy-3-(pyrrolidin-1-yl)propan-2-yl)-2-(2,3-dihydro-1H-inden-2-yl)acetamide], in data set [1] (setting [5]), the half-maximal inhibitory concentration (IC50) came out at 0.43 nM. The half-life in data set [2] (setting [6]) turned out to be 7.1 min.

Regarding `O=C(CC1Cc2ccccc2C1)N[C@H](CN1CCCC1)[C@H](O)c1cc(Cl)cc(OC2CC2)c1` [Example 20, N-((1R,2R)-1-(3-chloro-5-cyclopropoxyphenyl)-1-hydroxy-3-(pyrrolidin-1-yl)propan-2-yl)-2-(2,3-dihydro-1H-inden-2-yl)acetamide], the IC50 in data set [1] (setting [5]) stood at 2.1 nM. Besides, the half-life in data set [2] (setting [6]) was determined as 6.5 min.

For the molecule `CC(C)(C)c1ccc([C@@H](O)[C@@H](CN2CCCC2)NC(=O)CC2Cc3ccccc3C2)cc1Cl` [Example 21, N-((1R,2R)-1-(4-(tert-butyl)-3-chlorophenyl)-1-hydroxy-3-(pyrrolidin-1-yl)propan-2-yl)-2-(2,3-dihydro-1H-inden-2-yl)acetamide], the IC50 in data set [1] (setting [5]) was 24.1 nM. In addition, in data set [2] (setting [6]), the half-life is over 1000 min.

As to `O=C(CC1Cc2ccccc2C1)N[C@H](CN1CCCC1)[C@H](O)c1cccc(Cl)c1F` [Example 22, N-((1R,2R)-1-(3-chloro-2-fluorophenyl)-1-hydroxy-3-(pyrrolidin-1-yl)propan-2-yl)-2-(2,3-dihydro-1H-inden-2-yl)acetamide], the half-inhibitory concentration (IC50) in data set [1] (setting [5]) is 141 nM. In data set [2] (setting [6]), the half-life amounted to 4.6 min.
